Viability data for 47 compounds are collected here from article PMC11995724, “Antibiotic target discovery by integrated phenotypic and activity-based profiling of electrophilic fragments” (Cell chemical biology, 2025).

The data set is described as follows: in vitro. As to conditions: human, hek293t cells.
Description: Mammalian cytotoxicity measurement was performed using Cell Titer-Glo 2.0 Cell Viability Assay (Promega, G9243) according to the manufacturer protocol. In brief, mammalian cells were seeded into 384-well white plates (Greiner, 781080) and incubated at 37°C for one day. Compounds from the Cys-Library were dispensed into the assay plate using epMotion 96. The plates were then incubated at 37°C for two days. An equal volume of Cell Titer-Glo 2.0 reagent was added into each well of the assay plate using epMotion 96 and incubated at 22°C for 10 min, followed by luminescence measurement using a Cytation 5 plate reader (BioTek).
Turning to `COc1cccc(N2C(=O)C=CC2=O)c1` [10-K03, 1-(3-methoxyphenyl)-2,5-dihydro-1H-pyrrole-2,5-dione], the viability at 48 h, 25 µM amounted to 18.5%.

For the compound `CC(Cl)C(=O)NC1CCCn2nccc21` (centres unmarked) [6-J16, 2-chloro-N-{4H,5H,6H,7H-pyrazolo[1,5-a]pyridin-4-yl}propanamide], the viability at 48 h, 25 µM came to 113%.

As for `O=C(CCl)N(Cc1ccnn1C1CCC1)C1CC=CCC1` (centres unmarked) [5-I14, 2-chloro-N-[(1-cyclobutyl-1H-pyrazol-5-yl)methyl]-N-(cyclohex-3-en-1-yl)acetamide], the viability at 48 h, 25 µM was found to be 0.326%.

For `C=CC(=O)NCC(F)(F)C1(OC)CCC1` [3-L07, N-[2,2-difluoro-2-(1-methoxycyclobutyl)ethyl]prop-2-enamide], the viability at 48 h, 25 µM amounted to 82.7%.

With `C=CC(=O)N1CCC(C(=O)Nc2ccn(CC(=O)N(C)C)n2)CC1` [2-H12, N-{1-[(dimethylcarbamoyl)methyl]-1H-pyrazol-3-yl}-1-(prop-2-enoyl)piperidine-4-carboxamide], the viability at 48 h, 25 µM was 71%.

Take `C=CC(=O)N1CCC(n2ncc3ccccc32)CC1` [1-K22, 1-[4-(1H-indazol-1-yl)piperidin-1-yl]prop-2-en-1-one]: the viability at 48 h, 25 µM came to 94.9%.

On to `C=CC(=O)N1CCC(C(=O)N2CCOc3cc(F)ccc3C2)CC1` [3-E06, 1-[4-(8-fluoro-2,3,4,5-tetrahydro-1,4-benzoxazepine-4-carbonyl)piperidin-1-yl]prop-2-en-1-one], for which the viability at 48 h, 25 µM is 67.9%.

`Cc1c(NC(=O)CCl)c(=O)n(-c2ccccc2)n1C` [5-G17, 2-chloro-N-(1,5-dimethyl-3-oxo-2-phenyl-2,3-dihydro-1H-pyrazol-4-yl)acetamide]: the viability at 48 h, 25 µM worked out at 42.7%.

With `CC(Cl)C(=O)N(C)C1CCN(c2ccccc2Cl)C1=O` (centres unmarked) [7-C16, 2-chloro-N-[1-(2-chlorophenyl)-2-oxopyrrolidin-3-yl]-N-methylpropanamide], the viability at 48 h, 25 µM stood at 77.8%.

For the compound `CC(Cl)C(=O)NCc1cc(C(F)F)nn1C` (centres unmarked) [6-H14, 2-chloro-N-{[3-(difluoromethyl)-1-methyl-1H-pyrazol-5-yl]methyl}propanamide], the viability at 48 h, 25 µM stood at 108%.

For the compound `Cc1csc(-n2c(C)cc(C(=O)CCl)c2C)n1` [10-G05, 2-chloro-1-[2,5-dimethyl-1-(4-methyl-1,3-thiazol-2-yl)-1H-pyrrol-3-yl]ethan-1-one], the viability at 48 h, 25 µM worked out at 72.5%.

`O=C(CCl)NCc1ccc(N2CCOCC2)nc1` [6-E22, 2-chloro-N-{[6-(morpholin-4-yl)pyridin-3-yl]methyl}acetamide]: the viability at 48 h, 25 µM turned out to be 8.26%.

Take `O=C(CCl)NCc1ccccc1Cn1cccn1` [5-P06, 2-chloro-N-({2-[(1H-pyrazol-1-yl)methyl]phenyl}methyl)acetamide]: the viability at 48 h, 25 µM was determined as 94%.

For the compound `O=C(CCl)NCC(=O)N(c1ccccc1)c1ccccc1` [7-B12, 2-chloro-N-[(diphenylcarbamoyl)methyl]acetamide], the viability at 48 h, 25 µM was 1.21%.

Take `Cc1ccccc1NC(=O)C(C#N)=Cc1cc(C)n(CC(C)C)c1C` [8-D19, 2-cyano-3-[2,5-dimethyl-1-(2-methylpropyl)-1H-pyrrol-3-yl]-N-(2-methylphenyl)prop-2-enamide]: the viability at 48 h, 25 µM was determined as 118%.

`N#CC(=Cc1c(C2CC2)nc2sccn12)C(=O)NC1CCCCC1` [9-H18, 2-cyano-N-cyclohexyl-3-{6-cyclopropylimidazo[2,1-b][1,3]thiazol-5-yl}prop-2-enamide]: the viability at 48 h, 25 µM came to 86.8%.

Turning to `COc1cc(OC)c(C(=O)CCl)c(OC)c1` [10-L04, 2-chloro-1-(2,4,6-trimethoxyphenyl)ethan-1-one], the viability at 48 h, 25 µM came out at 80.7%.

In the case of `C=CC(=O)N(Cc1cc(F)c(F)c(F)c1)C(C)C1CCCO1` (centres unmarked) [1-L13, N-[1-(oxolan-2-yl)ethyl]-N-[(3,4,5-trifluorophenyl)methyl]prop-2-enamide], the viability at 48 h, 25 µM stood at 176%.

Regarding `Cc1ccc(C=C(C#N)C(=O)Nc2nccs2)o1` [9-P10, 2-cyano-3-(5-methylfuran-2-yl)-N-(1,3-thiazol-2-yl)prop-2-enamide], the viability at 48 h, 25 µM came out at 126%.

`Cc1cc(C(=O)CCl)c(C)c(C)c1C` [10-I06, 2-chloro-1-(2,3,4,5-tetramethylphenyl)ethan-1-one]: the viability at 48 h, 25 µM was determined as 0.728%.

With `CC(Cl)C(=O)NCCc1cn(C)nn1` (centres unmarked) [7-A14, 2-chloro-N-[2-(1-methyl-1H-1,2,3-triazol-4-yl)ethyl]propanamide], the viability at 48 h, 25 µM is 82.7%.

On to `N#CC(=Cc1ccc2c(c1)OCCO2)C(=O)NC1CCCCC1` [9-J19, 2-cyano-N-cyclohexyl-3-(2,3-dihydro-1,4-benzodioxin-6-yl)prop-2-enamide], for which the viability at 48 h, 25 µM was determined as 118%.

Consider `CC(Cl)C(=O)N1CCCC1CC(=O)c1cnn(C)c1` (centres unmarked) [6-D16, 2-chloro-1-{2-[2-(1-methyl-1H-pyrazol-4-yl)-2-oxoethyl]pyrrolidin-1-yl}propan-1-one], for which the viability at 48 h, 25 µM is 116%.

Take `C=CC(=O)N1CCN(CC2CCOC2)CC1` (centres unmarked) [1-H18, 1-{4-[(oxolan-3-yl)methyl]piperazin-1-yl}prop-2-en-1-one]: the viability at 48 h, 25 µM worked out at 49.6%.

Consider `C=CC(=O)N1CCCC(C2CCN(C(=O)c3cc(C)nn3C)CC2)C1` (centres unmarked) [1-P22, 1-[1'-(1,3-dimethyl-1H-pyrazole-5-carbonyl)-[3,4'-bipiperidin]-1-yl]prop-2-en-1-one], for which the viability at 48 h, 25 µM was 55.9%.

Regarding `C=CC(=O)N1CCC(C(=O)Nc2ccc3c(c2)CCN3C(N)=O)CC1` [3-E16, 5-[1-(prop-2-enoyl)piperidine-4-amido]-2,3-dihydro-1H-indole-1-carboxamide], the viability at 48 h, 25 µM came out at 101%.

For `N#CC(=Cc1ccco1)C(=O)Nc1ccc2nc(S)oc2c1` [9-E16, 2-cyano-3-(furan-2-yl)-N-(2-sulfanyl-1,3-benzoxazol-6-yl)prop-2-enamide], the viability at 48 h, 25 µM was found to be 110%.

Regarding `C=CC(=O)N1CCC(C(=O)N2Cc3ccc([N+](=O)[O-])cc3C2)CC1` [2-F04, 1-[4-(5-nitro-2,3-dihydro-1H-isoindole-2-carbonyl)piperidin-1-yl]prop-2-en-1-one], the viability at 48 h, 25 µM amounted to 82.7%.

As for `C=CC(=O)N1Cc2ccccc2C[C@@H]1C(=O)NC1CC1` [2-G06, (3R)-N-cyclopropyl-2-(prop-2-enoyl)-1,2,3,4-tetrahydroisoquinoline-3-carboxamide], the viability at 48 h, 25 µM came out at 101%.

Turning to `N#CC(=Cc1ccc2c(c1)OCCO2)C(=O)Nc1nccs1` [8-B03, 2-cyano-3-(2,3-dihydro-1,4-benzodioxin-6-yl)-N-(1,3-thiazol-2-yl)prop-2-enamide], the viability at 48 h, 25 µM came to 115%.

For the compound `C=CC(=O)N1CCC(C(=O)N(C)C2CCCc3c2cnn3C)CC1` (centres unmarked) [2-P12, N-methyl-N-(1-methyl-4,5,6,7-tetrahydro-1H-indazol-4-yl)-1-(prop-2-enoyl)piperidine-4-carboxamide], the viability at 48 h, 25 µM came to 78.2%.

`C=CCNC(=O)C(C#N)=Cc1ccccc1OC` [9-H05, 2-cyano-3-(2-methoxyphenyl)-N-(prop-2-en-1-yl)prop-2-enamide]: the viability at 48 h, 25 µM was 114%.

Take `O=C(CCl)Cc1cccc(F)c1` [10-C11, 1-chloro-3-(3-fluorophenyl)propan-2-one]: the viability at 48 h, 25 µM stood at 38.4%.

In the case of `N#CC(=Cc1c(Cl)cccc1Cl)C(=O)NCc1ccco1` [9-K06, 2-cyano-3-(2,6-dichlorophenyl)-N-[(furan-2-yl)methyl]prop-2-enamide], the viability at 48 h, 25 µM was determined as 29.2%.

In the case of `C=CC(=O)N1CCC(C(=O)N2CCCC(CC(N)=O)CC2)CC1` (centres unmarked) [2-F12, 2-{1-[1-(prop-2-enoyl)piperidine-4-carbonyl]azepan-4-yl}acetamide], the viability at 48 h, 25 µM stood at 65.1%.

Turning to `C=CC(=O)NCc1cc(Cl)cc(S(C)(=O)=O)c1` [3-N15, N-[(3-chloro-5-methanesulfonylphenyl)methyl]prop-2-enamide], the viability at 48 h, 25 µM was 76.8%.

Take `N#CC(=Cc1cc(Cl)ccc1O)C(=O)Nc1cccc2ccccc12` [9-P17, 3-(5-chloro-2-hydroxyphenyl)-2-cyano-N-(naphthalen-1-yl)prop-2-enamide]: the viability at 48 h, 25 µM is 130%.

As to `Cc1ccc(NC(=O)C(C)Cl)cc1` (centres unmarked) [4-J15, 2-chloro-N-(4-methylphenyl)propanamide], the viability at 48 h, 25 µM was 92.1%.

Consider `CC(NC(=O)CCl)C(=O)N1c2ccccc2CC1C` (centres unmarked) [7-N16, 2-chloro-N-[1-(2-methyl-2,3-dihydro-1H-indol-1-yl)-1-oxopropan-2-yl]acetamide], for which the viability at 48 h, 25 µM came out at 0.726%.

`Cc1cccc(C=C(C#N)C(=O)NC2CCCCC2)c1` [8-K07, 2-cyano-N-cyclohexyl-3-(3-methylphenyl)prop-2-enamide]: the viability at 48 h, 25 µM came to 45%.

On to `CC(C)Oc1ccccc1C=C(C#N)C(=O)Nc1cccc(Cl)c1` [9-P20, N-(3-chlorophenyl)-2-cyano-3-[2-(propan-2-yloxy)phenyl]prop-2-enamide], for which the viability at 48 h, 25 µM came out at 107%.

Turning to `N#CC(=Cc1ccc(O)c(O)c1)C(=O)Nc1cccc(Cl)c1Cl` [8-F07, 2-cyano-N-(2,3-dichlorophenyl)-3-(3,4-dihydroxyphenyl)prop-2-enamide], the viability at 48 h, 25 µM is 77.6%.

Turning to `Cc1cc(S(=O)(=O)N(C)C)cc(NC(=O)CCl)c1C` [4-H15, 2-chloro-N-[5-(dimethylsulfamoyl)-2,3-dimethylphenyl]acetamide], the viability at 48 h, 25 µM came to 1.33%.

Consider `CN(C(=O)CCl)C1CCN(c2ccccc2F)C1=O` (centres unmarked) [5-A18, 2-chloro-N-[1-(2-fluorophenyl)-2-oxopyrrolidin-3-yl]-N-methylacetamide], for which the viability at 48 h, 25 µM turned out to be 0.916%.

As to `N#CC(=Cc1c2ccccc2cc2ccccc12)C(=O)NC1CCCCC1` [8-D14, 3-(anthracen-9-yl)-2-cyano-N-cyclohexylprop-2-enamide], the viability at 48 h, 25 µM amounted to 94.6%.

Consider `C=CC(=O)N(C)C[C@@H]1CCC(=O)N1` [3-A22, N-methyl-N-{[(2S)-5-oxopyrrolidin-2-yl]methyl}prop-2-enamide], for which the viability at 48 h, 25 µM was 150%.

For the compound `CCN(CC)C(=O)/C(C#N)=C/c1cc(O)c(O)c([N+](=O)[O-])c1` [9-B04, (2E)-2-cyano-3-(3,4-dihydroxy-5-nitrophenyl)-N,N-diethylprop-2-enamide], the viability at 48 h, 25 µM turned out to be 105%.
